Measured values: patent US12612389B2, “Benzofuran-based N-acylhydrazone derivative and pharmaceutical composition comprising same” (KOREA RESEARCH INSTITUTE OF BIOSCIENCE AND BIOTECHNOLOGY, priority 2019, dated 2026)

Tests used:
[1] = system: HeLa CCL2 cell line; experiment: Effect test on cell cycle progression (propidium iodine, FACS); type: cell-based, human
[2] = system: MCF7; experiment: Anti-proliferative activity test in cancer cells exhibiting multidrug resistance (MTT), parent line; type: cell-based; details: Homo sapiens, 96 h, 4 days
Experimental: HeLa cells (American Type Culture Collection: ATCC, USA), a human cervical cancer cell line, were seeded in a 96-well plate at 3×10^3 cells/well, and the cells were then treated with compounds of Examples or Comparative Example according to the present invention and grown for 2 days. Then, MTT (3-(4,5-dimethylthiazol-2-yl)-2,5-diphenyltetrazolium bromide) reagent was added at 10 μL/well. […] The data shown in Table below are mean values of results obtained by repeating the analysis twice. Specifically, K562 and MCF7 (Bio Evaluation Center, Korea Research Institute of Bioscience and Biotechnology, Korea) and multidrug-resistant cell lines of each of these cell lines, i.e., K562/ADR and MCF7/ADR (Bio Evaluation Center, Korea Research Institute of Bioscience and Biotechnology, Korea), were cultured on microtiter plates (1-3×10^3 cells/well). […] The data shown in Table below are mean values of results obtained by repeating the analysis three times.

[3] = system: HeLa CCL2 cells; experiment: In vitro invasion assay (trans well); type: cell-based, human; details: 10 nM, 50 nM, 100 nM, 250 nM, 16 hours, FIGS. 7A and 7B
Experimental: In addition, in order to confirm the efficacy of inhibiting cell migration again, an invasion assay was performed. A trans well chamber for a 24-well plate was prepared, and HeLa CCL2 cells at a density of 5×10^4 were put into the upper chamber, treated with 10 nM, 50 nM, 100 nM, and 250 nM of the compound of Example 4, and cultured. Then, after 16 hours, the migrated cells were identified and the number thereof was measured through cell staining.

[4] = system: A498; experiment: Anti-proliferative activity in other cancer cell lines (MTT); type: cell-based; details: Homo sapiens, 96 h, Kidney, 4 days
Experimental: (§1) HeLa cells (American Type Culture Collection: ATCC, USA), a human cervical cancer cell line, were seeded in a 96-well plate at 3×10^3 cells/well, and the cells were then treated with compounds of Examples or Comparative Example according to the present invention and grown for 2 days. Then, MTT (3-(4,5-dimethylthiazol-2-yl)-2,5-diphenyltetrazolium bromide) reagent was added at 10 μL/well. After 2 hours, absorbance was measured at “OD 450” and statistical values were obtained using Prism™6 program. The data shown in Table below are mean values of results obtained by repeating the analysis twice.
(§2) Specifically, various cancer cell lines were cultured in a microtiter plate (1-3×10^3 cells/well), treated with the compound of Example 4 according to the present invention, and cultured for 4 days. Cytotoxicity was tested by MTT assay in the same manner as in Experimental Example 1-1, and IC50 was obtained by a log-dose response curve. The data shown in Table below are mean values of results obtained by repeating the analysis three times.

[5] = system: NCI-H522; experiment: as above; type: cell-based; details: Homo sapiens, 96 h, Lung, 4 days
Experimental: as §1, §2

[6] = system: A172; experiment: as above; type: cell-based; details: Homo sapiens, A 172, 96 h, Brain, 4 days
Experimental: as §1, §2

[7] = system: SK-MEL 5; experiment: as above; type: cell-based; details: Homo sapiens, 96 h, Skin, 4 days
Experimental: as §1, §2

[8] = system: DU145; experiment: as above; type: cell-based; details: Homo sapiens, DU-145, 96 h, Prostate, 4 days
Experimental: as §1, §2

[9] = system: Hep3B; experiment: as above; type: cell-based; details: Homo sapiens, 96 h, Liver, 4 days
Experimental: as §1, §2

[10] = system: HCT-15; experiment: as above; type: cell-based; details: Homo sapiens, 96 h, Colon, 4 days
Experimental: as §1, §2

[11] = system: Colo 205; experiment: as above; type: cell-based; details: Homo sapiens, 96 h, Colon, 4 days
Experimental: as §1, §2

[12] = system: SNB75; experiment: as above; type: cell-based; details: Homo sapiens, SNB-75, 96 h, CNS, 4 days
Experimental: as §1, §2

[13] = system: HCC1954; experiment: as above; type: cell-based; details: Homo sapiens, 96 h, Breast, 4 days
Experimental: as §1, §2

[14] = system: MOLT4; experiment: as above; type: cell-based; details: Homo sapiens, MOLT-4, 96 h, Marrow (leukemia), 4 days
Experimental: as §1, §2

[15] = system: HeLa CCL2; experiment: as above; type: cell-based; details: Homo sapiens, 96 h, Cervix, 4 days
Experimental: as §1, §2

[16] = system: CCRF-CEM; experiment: as above; type: cell-based; details: Homo sapiens, 96 h, Peripheral blood, 4 days
Experimental: as §1, §2

[17] = system: 786-O; experiment: as above; type: cell-based; details: Homo sapiens, 786-0, 96 h, Kidney, 4 days
Experimental: as §1, §2

[18] = system: NCI-H460; experiment: as above; type: cell-based; details: Homo sapiens, 96 h, Lung, 4 days
Experimental: as §1, §2

[19] = set-up: species or system ICR mice; details: mouse, in vivo
Experimental: The experimental apparatus was constructed similarly to that used in the paper described by Reyes-Mendez et al. (2018), and was composed of a black acrylic fence (floor area of […] and wall height of 40 cm). The floor surface was divided into 25 squares each having a size of 10×10 cm. For this experiment, mice were placed on the center of the floor and spontaneous activities thereof were recorded for 7 minutes from the top. After the experiment, the experimental apparatus was thoroughly washed with 30% ethanol. Three observers, unaware whether the drug was treated or not, analyzed the first 5 minutes of recorded video to count the number of squares the mouse passed, and add up the time during which the mouse stayed without moving, and the number of times the mouse was groomed or shaken, and the like. Based on the contents analyzed above, the time during which the mouse stayed in the central zone, speed, and total moving distance were calculated. A case where the two-tailed probability value was less than 0.05 (p<0.05) was considered statistically significant.
No statistically significant experimental groups were found as results of open-field experiments in mice.

[20] = Solubility of the compound in the toxicity-test solvent; type: physicochemical; details: N′,N′-dimethylacetamide/Kolliphor/2-hydroxypropyl-β-cyclodextrin (10% in distilled water)=40:10:50; thicker solutions precipitated
Experimental: 100 mg/kg of the compound of Example 4 was dissolved in a solvent (N′,N′-dimethylacetamide/Kolliphor/2-hydroxypropyl-β-cyclodextrin (10% concentration of distilled water solution)=40:10:50). When the concentration became thicker than that, the reaction solution immediately precipitated. The solution in which the compound of Example 4 was dissolved from 12.5 mg/kg to 100 mg/kg was injected into the peritoneal cavity of mice 10 times […] in a volume of 100 μL (see FIG. 8A). All animals survived to the final day, and no particular problems were seen by visual observation (see Table 13 and FIG. 8A).

## CCOCCn1c(Cl)c(/C=N/NC(=O)c2cc3cc(C)ccc3o2)c2ccccc21 [Example 4, (E)-N′-[(2-chloro-1-(2-ethoxyethyl)-1H-indol-3-yl]methylene}-5-methylbenzofuran-2-carbohydrazide]
[1]; 0.2 μM, FACS
  number of cells in G2/M phase as a percentage: 82.36%
[1]; 16 hours post treatment
  cells stopped in the mitotic phase: ≥ 80%
[1]; FACS
  Effect (μM): concentration at which cells were collected in the mitotic phase: 0.2 µM
[1]; Homo sapiens, as stated in text on Table 5
  IC50: 200 nM
[2]
  IC50: 822 nM
[3]
  cancer metastasis inhibitory effect (migrated cells): excellent cancer metastasis inhibitory effect
[4]
  IC50: 170 ± 8 nM
[5]
  IC50: 370 ± 130 nM
[6]
  IC50: 790 ± 90 nM
[7]
  IC50: 460 ± 140 nM
[8]
  IC50: 490 ± 90 nM
[9]
  IC50: 190 ± 50 nM
[10]
  IC50: 280 ± 70 nM
[11]
  IC50: 360 ± 490 nM
[12]
  IC50: 390 ± 30 nM
[13]
  IC50: 410 ± 50 nM
[14]
  IC50: 300 ± 10 nM
[15]
  IC50: 180 ± 4 nM
[16]
  IC50: 340 ± 20 nM
[17]
  IC50: 130 ± 50 nM
[18]
  IC50: 500 ± 90 nM
[19]
  effect on behavior of mice in open field (time in center zone, speed, total moving distance): did not affect the behavior of mice in all groups
[20]
  highest concentration dissolved without precipitation: 100 mg/kg
